Key:
[1] = Dynamic surface tension (bubble pressure tensiometer); format: physicochemical; settings: 100, 300 and 1000 ppm in deionized water, 22 °C; 10 to 10,000 ms surface age
Protocol: All samples were analyzed using a Krüss BPT Mobile bubble pressure tensiometer. Solutions of 12(2)12 and ^MeP2P-12,12 were made in concentrations of 100, 300 and 1000 ppm using deionized water. Measurements were conducted at 22+1 °C. Before each sample run, a new capillary tip was installed and the instrument was calibrated with deionized water. The dynamic surface tension (mN/m) was measured as a function of surface bubble age (30 collection points over the range of 10 to 10,000 ms).
In order to further investigate these highly analogous bis-cationic structures, a Krüss bubble pressure tensiometer was utilized to measure the dynamic surface tension of 12(2)12 and ^MeP2P-12,12.
Antimicrobial activity is expected to be affected by differences in solution behavior of amphiphilic molecules, such as the propensity to form micelles and solution dispersion rates. Structural factors such as nature of the charge and the alkyl chain length of the amphiphile have been previously reported to change the behavior of surfactants. These types of structural factors are consistent with the factors that influence the inventors' proposed mechanism of action for bacteria membrane disruption by multicationic QACs. […]

established biofilm = assay: Biofilm eradication (MBEC) over the strains tested; format: cell-based; settings: pegged-lid microtiter plate assay
Protocol: A regrowth assay was used to establish the MBEC of a compound to evaluate the antibiofilm activity.
Biofilm eradication experiments were performed using a pegged-lid microtiter plate assay to determine the MBEC values for compounds of interest, as previously described. […] Sci. Rep. 2017, 7, 2003; and Raval, Y. S., Flurin, L., Mohamed, A., Greenwood-Quaintance, K. E., Beyenal, H., & Patel, R. In Vitro Activity of Hydrogen Peroxide and Hypochlorous Acid Generated by Electrochemical Scaffolds Against Planktonic and Biofilm Bacteria. Antimicrob Agents Chemother. 2021, 65, e01966-20. Briefly, […] of mid-log phase culture diluted to ca. 10^6 CFU/mL in tryptic soy broth (TSB) was added to wells of plat-bottom 96-well plates (Thermo Scientific, 266120) and covered with 96-pegged lid (Thermo Scientific, 445497). […] MBEC values were determined as the lowest test concentration that resulted eradicated biofilm (i.e., wells displaying no turbidity in the final plate).
Pleased by the activity of the phosphonium compounds, the inventors sought to further investigate the antibacterial properties while comparing the effects of the heteroatom on activity. To do so, the inventors determined the minimum biofilm eradication concentration (MBEC) of bisQPC ^MeP2P-12,12 and analogous bisQAC 12(2)12 using a pegged-lid microtiter plate assay.

Compound | dynamic surface tension (in words) [1] | ability to eradicate established biofilm (in words) (established biofilm)
CCCCCCCCCCCC[N+](C)(C)CC[N+](C)(C)CCCCCCCCCCCC [12(2)12, reference compound] | behave almost identically in solution | ability to eradicate established biofilm against three of the strains tested
CCCCCCCCCCCC[P+](C)(C)CC[P+](C)(C)CCCCCCCCCCC [^MeP2P-12,12] | behave almost identically in solution | ability to eradicate established biofilm against three of the strains tested

Source: patent US20260374792A1, “PHENYL-FREE BISCATIONIC QUATERNARY PHOSPHONIUM COMPOUNDS AS ANTIMICROBIAL AGENTS” (priority 2022, published 2026)
